Assay [1] relates to primary human T-cells.
Assay [2] deals with primary human T-cells. Briefly: Proliferation assay after 5 days (CellTiter-Glo, CD3 stimulation; PBS counter screen). The class given is cell-based. Conditions: for Emax: read-out: Emax proliferation (% activation); for EC50: read-out: Tcell Proliferation CD3 EC50. In short, it runs like this: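 Read-out: CellTiter-Glo 2.0 luminescence (ATP ∝ cell number) at day 5 after compound addition. Compounds activating unstimulated cells or reducing viability flagged.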
For orientation: In ATP-based viability assays light output follows the ATP content of the culture.

Setting [3] is: Homo sapiens, T-cell, 120 h, CD3 stimulation, 5 days, normalized to reference compound A1 as stimulator control = 100%, DMSO neutral control.
The mark [4] stands for this setting: Homo sapiens, T-cell, 120 h, primary human T-cells, CD3 stimulation, CellTiter-Glo after 5 days, EC50 of fitted sigmoidal curve.
[5] abbreviates: CD3 stimulation, 5 days, normalized to reference compound A1 as stimulator control = 100%, DMSO neutral control.
[6] abbreviates: primary human T-cells, CD3 stimulation, CellTiter-Glo after 5 days, EC50 of fitted sigmoidal curve.

The structures appear in SMILES notation. Like-named read-outs stand apart in the source and are kept apart here.

Regarding `N[C@H]1CS(=O)(=O)c2cc(F)c(-c3nnc(NC4CCN(C5CC5)CC4)o3)cc2N(Cc2ccc(Cl)cc2)C1=O` [Example 460, (3R)-3-amino-5-[(4-chlorophenyl)methyl]-7-[5-[(1-cyclopropyl-4-piperidyl)amino]-1,3,4-oxadiazol-2-yl]-8-fluoro-1,1-dioxo-2,3-dihydro-1λ^6,5-benzothiazepin-4-one], the values for the EC50 in assay [1] and in assay [2] (setting [4]) were 509 nM and 5700 nM, respectively. For the same compound, the Emax in assay [2] (setting [3]) is 55%.
In the case of `CC(Nc1nnc(-c2cc3c(cc2F)S(=O)(=O)C[C@H](N)C(=O)N3Cc2ccc(Cl)cc2)o1)C1CC(F)(F)C1` (stereo partly drawn) [Example 493, (3R)-3-amino-5-[(4-chlorophenyl)methyl]-7-[5-[1-(3,3-difluorocyclobutyl)ethylamino]-1,3,4-oxadiazol-2-yl]-8-fluoro-1,1-dioxo-2,3-dihydro-1λ^6,5-benzothiazepin-4-one], the EC50 in assay [1] was 1280 nM; in assay [2] (setting [4]), 982 nM. Besides, the Emax in assay [2] (setting [3]) came to 102%.
For `N[C@H]1C[S+]([O-])c2ccc(-c3nnc(CC(F)(F)F)o3)cc2N(Cc2ccc(OC(F)(F)F)cc2)C1=O` (single isomer, unassigned; epimer b) [Example 428], the EC50 in assay [1] was 1580 nM; in assay [2] (setting [6]), 3280 nM. Further, the “Emax proliferation (% activation)” value in assay [2] (setting [5]) is 38 % activation.
Regarding `CN(C)C(=O)c1nc(-c2cc3c(cc2F)S(=O)(=O)C[C@H](N)C(=O)N3Cc2ccc(OC(F)(F)C(F)F)cc2)no1` [Example 352, 3-[(3R)-3-amino-8-fluoro-1,1,4-trioxo-5-[[4-(1,1,2,2-tetrafluoroethoxy)phenyl]methyl]-2,3-dihydro-1λ^6,5-benzothiazepin-7-yl]-N,N-dimethyl-1,2,4-oxadiazole-5-carboxamide], the values for the EC50 in assay [1] and in assay [2] (setting [4]) were 5740 nM and 768 nM, respectively. The Emax in assay [2] (setting [3]) came to 100%.
As for `COC(=O)N1CCC(c2nnc(-c3ccc4c(c3)N(Cc3ccc(OC(F)(F)F)cc3)C(=O)[C@@H](N)CS4(=O)=O)o2)C1` (stereo partly drawn) [Example 423, methyl 3-[5-[(3R)-3-amino-1,1,4-trioxo-5-[[4-(trifluoromethoxy)phenyl]methyl]-2,3-dihydro-1λ^6,5-benzothiazepin-7-yl]-1,3,4-oxadiazol-2-yl]pyrrolidine-1-carboxylate], the EC50 was 1500 nM in assay [1] and 1720 nM in assay [2] (setting [4]). The Emax in assay [2] (setting [3]) was found to be 78%.
Regarding `CC[C@H](NC)C(=O)N[C@H]1CS(=O)(=O)c2cc(F)c(-c3nnc(C(C)(C)C)o3)cc2N(Cc2ccc(Cl)cc2)C1=O` [Example 263, (2S)-N-[(3R)-7-(5-tert-butyl-1,3,4-oxadiazol-2-yl)-5-[(4-chlorophenyl)methyl]-8-fluoro-1,1,4-trioxo-2,3-dihydro-1λ^6,5-benzothiazepin-3-yl]-2-(methylamino)butanamide], the EC50 in assay [1] was 1400 nM; in assay [2] (setting [6]) it was under 162 nM. Also, the “Emax proliferation (% activation)” value in assay [2] (setting [5]) turned out to be 185 % activation.
On to `COC(=O)N1CC2CC(c3nc(-c4cc5c(cc4F)S(=N)(=O)C[C@H](N)C(=O)N5Cc4ccc(OC(F)(F)C(F)F)cc4)no3)(C2)C1` (stereo partly drawn) [Example 520, methyl 1-[3-[(3R)-3-amino-8-fluoro-1-imino-1,4-dioxo-5-[[4-(1,1,2,2-tetrafluoroethoxy)phenyl]methyl]-2,3-dihydro-1λ^6,5-benzothiazepin-7-yl]-1,2,4-oxadiazol-5-yl]-3-azabicyclo[3.1.1]heptane-3-carboxylate], for which the EC50 came out at 1150 nM in assay [1] and 267 nM in assay [2] (setting [4]). The Emax in assay [2] (setting [3]) was 42%.
On to `CC1(c2nnc(-c3cc4c(cc3F)S(=O)(=O)C[C@H](N)C(=O)N4Cc3ccc(Cl)cc3)o2)CCCO1` (stereo partly drawn) [Example 88, (3R)-3-amino-5-[(4-chlorophenyl)methyl]-8-fluoro-7-[5-(2-methyltetrahydrofuran-2-yl)-1,3,4-oxadiazol-2-yl]-1,1-dioxo-2,3-dihydro-1λ^6,5-benzothiazepin-4-o], for which the EC50 in assay [1] was determined as 689 nM; in assay [2] (setting [4]), 242 nM. The Emax in assay [2] (setting [3]) amounted to 97%.
For the compound `Cc1ccc(OC(=O)N2CCC(C)(c3nnc(-c4ccc5c(c4)N(Cc4ccc(Cl)cc4)C(=O)[C@@H](N)CS5(=O)=O)o3)CC2)cn1` [Example 383, (6-methyl-3-pyridyl) 4-[5-[(3R)-3-amino-5-[(4-chlorophenyl)methyl]-1,1,4-trioxo-2,3-dihydro-1λ^6,5-benzothiazepin-7-yl]-1,3,4-oxadiazol-2-yl]-4-methyl-piperidine-1-carboxylate], in assay [1], the EC50 is 857 nM. In assay [2] (Homo sapiens, T-cell, 120 h), the Emax turned out to be 94% and the EC50 was 1320 nM.
`CC(C)(C)c1nnc(-c2ccc3c(c2)N(Cc2ccc(OC(F)(F)F)cc2)C(=O)[C@@H](N)CS3(=O)=O)o1` [Example 360, (3R)-3-amino-7-(5-tert-butyl-1,3,4-oxadiazol-2-yl)-1,1-dioxo-5-[[4-(trifluoromethoxy)phenyl]methyl]-2,3-dihydro-1λ^6,5-benzothiazepin-4-one]: the EC50 in assay [1] came to 922 nM; in assay [2] (setting [4]) it was 384 nM. Moreover, the Emax in assay [2] (setting [3]) was found to be 103%.
The corresponding values for `COC(=O)N1CC2CC(c3nc(-c4cc5c(cc4F)[S+]([O-])C[C@H](N)C(=O)N5Cc4ccc(OC(F)(F)C(F)F)cc4)no3)(C2)C1` (stereo partly drawn) [Example 511, methyl 1-[3-[(3R)-3-amino-8-fluoro-1,4-dioxo-5-[[4-(1,1,2,2-tetrafluoroethoxy)phenyl]methyl]-2,3-dihydro-1λ^4,5-benzothiazepin-7-yl]-1,2,4-oxadiazol-5-yl]-3-azabicyclo[3.1.1]heptane-3-carboxylate] are 7820 nM, 6620 nM and 104%.
The corresponding values for `N[C@H]1CS(=O)(=O)c2cc(F)c(-c3nnc(C4CCCCC4(F)F)o3)cc2N(Cc2ccc(OC(F)(F)F)cc2)C1=O` (stereo partly drawn) [Example 53, (3R)-3-amino-7-[5-(2,2-difluorocyclohexyl)-1,3,4-oxadiazol-2-yl]-8-fluoro-1,1-dioxo-5-[[4-(trifluoromethoxy)phenyl]methyl]-2,3-dihydro-1λ^6,5-benzothiazepin-4-one] are under 162 nM, under 162 nM and 243%.
The corresponding values for `C#CCOCCOCCCC(C)(C)Nc1nc(-c2cc3c(cc2F)S(=O)(=O)C[C@H](N)C(=O)N3Cc2ccc(Cl)cc2)no1` [Example 203, (3R)-3-amino-5-[(4-chlorophenyl)methyl]-7-[5-[[1,1-dimethyl-4-(2-prop-2-ynoxyethoxy)butyl]amino]-1,2,4-oxadiazol-3-yl]-8-fluoro-1,1-dioxo-2,3-dihydro-1λ^6,5-benzothiazepin-4-one] are 1580 nM, 233 nM and 99%.
As to `CS(=O)(=O)N1CCC(n2nnc(-c3cc4c(cc3F)S(=O)(=O)C[C@H](N)C(=O)N4Cc3ccc(Cl)cc3)n2)C1` (stereo partly drawn) [Example 19, (3R)-3-amino-5-[(4-chlorophenyl)methyl]-8-fluoro-7-[2-(1-methylsulfonylpyrrolidin-3-yl)tetrazol-5-yl]-1,1-dioxo-2,3-dihydro-1λ^6,5-benzothiazepin-4-one], the figures for the EC50 in assay [1] and in assay [2] (setting [4]) were 1170 nM and 1290 nM, respectively. The Emax in assay [2] (setting [3]) amounted to 58%.
The matching figures for `N[C@H]1CS(=O)(=O)c2cc(F)c(-c3nnc(N4CCOC5(CC5)C4)o3)cc2N(Cc2ccc(Cl)cc2)C1=O` [Example 472, (3R)-3-amino-5-[(4-chlorophenyl)methyl]-8-fluoro-7-[5-(4-oxa-7-azaspiro[2.5]octan-7-yl)-1,3,4-oxadiazol-2-yl]-1,1-dioxo-2,3-dihydro-1λ^6,5-benzothiazepin-4-one]: 109 nM, 116 nM and 115%.
The corresponding values for `CC(C)(C)n1nnc(-c2cc3c(cc2F)S(=O)(=O)C[C@H](N)C(=O)N3Cc2ccc(OCC3CCOCC3)cc2)n1` [Example 33, (3R)-3-amino-7-(2-tert-butyltetrazol-5-yl)-8-fluoro-1,1-dioxo-5-[[4-(tetrahydropyran-4-ylmethoxy)phenyl]methyl]-2,3-dihydro-1λ^6,5-benzothiazepin-4-one] are 5280 nM, 1900 nM and 104%.
The corresponding values for `CC(C)(F)c1nc(-c2cc3c(cc2F)S(=O)(=O)C[C@H](N)C(=O)N3Cc2ccc(F)cc2)no1` [Example 358, (3R)-3-amino-8-fluoro-7-[5-(1-fluoro-1-methyl-ethyl)-1,2,4-oxadiazol-3-yl]-5-[(4-fluorophenyl)methyl]-1,1-dioxo-2,3-dihydro-1λ^6,5-benzothiazepin-4-one] are 9450 nM, 1860 nM and 127%.
In the case of `CC(C)(C#N)c1nc(-c2cc3c(cc2F)S(=O)(=O)C[C@H](N)C(=O)N3Cc2ccc(Cl)cc2)no1` [Example 321, 2-[3-[(3R)-3-amino-5-[(4-chlorophenyl)methyl]-8-fluoro-1,1,4-trioxo-2,3-dihydro-1λ^6,5-benzothiazepin-7-yl]-1,2,4-oxadiazol-5-yl]-2-methyl-propanenitrile], the results for the EC50 in assay [1] and in assay [2] (setting [4]) were 597 nM and 250 nM, respectively. The Emax in assay [2] (setting [3]) came to 130%.
The matching figures for `N[C@H]1CS(=O)(=O)c2cc(F)c(-c3nnc(-c4ccc(F)cc4)o3)cc2N(Cc2ccc(Cl)cc2)C1=O` [Example 99, (3R)-3-amino-5-[(4-chlorophenyl)methyl]-8-fluoro-7-[5-(4-fluorophenyl)-1,3,4-oxadiazol-2-yl]-1,1-dioxo-2,3-dihydro-1λ^6,5-benzothiazepin-4-one]: 105 nM, 82.2 nM and 112%.

The values are drawn from US20240368150A1 (Hoffmann-La Roche Inc., priority 2021, published 2024).
